Test results published in article PMC11721617, “Novel isobavachalcone derivatives induce apoptosis and necroptosis in human non-small cell lung cancer H1975 cells” (Journal of Enzyme Inhibition and Medicinal Chemistry, 2023).
Read-outs that look alike come from different tables or passages of the source.

Assays:
PC9 = experiment: MTT assay, cytotoxic activity; format: cell-based; details: Homo sapiens, PC-9, PC9 cells, 72 h
Description: (§1) Four cell lines (H1975, A549, PC9, and Aml-12) were cultured in RPMI 1640 medium containing 10% foetal bovine serum (FBS) and 1% penicillin/streptomycin in an atmosphere with 5% CO2 and 95% relative humidity at 37 °C.
(§2) Cell viability was examined using the MTT assay. The cells grown in the logarithmic phase were seeded in 96-well plates at a density of 5 × 10^3 per well. The cells were treated with various concentrations (0, 5, 10, 20, 40, and 80 μM) of the compound at different times, respectively. At the end of time point, MTT solution (5 mg/ml) was added to each well and incubated at 37 °C for 4 h. Next, the media was removed, and formazan was dissolved in DMSO. Finally, absorbance was measured with a microplate spectrophotometer at 490 nm (Synergy HT, BioTek, VT, USA).

H1975 = experiment: MTT assay, cytotoxic activity / cell viability; format: cell-based, human; details: for viability at 40 µM / IC50: Homo sapiens; for IC50: NCI-H1975
Description: as §1, §2

H1975 cells [1] = experiment: ATP detection; format: cell-based, human; details: H1975, 10, 20, 40, and 80 μM, 6 h
Description: Cells were seeded in 6-well plates at a density of 3 × 10^5 cells/well and incubated with different concentrations (0, 10, 20, 40, and 80 μM) of compound 16 for 6 h. Afterwards, the cells were washed three times with PBS, lysed with RIPA buffer, and the lysates were centrifuged at 12 000 rpm for 5 min. The intracellular ATP levels were measured using a luminoskan luminometer (Thermo Scientific, Atlanta, GA, USA), according to the ATP assay kit’s protocol.

A549 = experiment: MTT assay, cytotoxic activity; format: cell-based, human; details: A549 cells
Description: as §1, §2

[2] = system: Bax, Bcl-2, Akt, Cyt C, caspase-9, caspase-3, RIP1, RIP3, p-RIP3, MLKL, p-MLKL in H1975 cells; experiment: Western blotting of apoptosis- and necroptosis-related proteins; format: cell-based, human
Description: Cells were seeded in 100 mm dishes at a density of 3 × 10^6 cells/well and treated with different concentrations (0, 10, 20, 40, and 80 μM) of compound 16. After incubated for 24 h, the cells were harvested, and washed three times with PBS solution. Next, the cells were lysed with RIPA lysis buffer for 30 min on ice. Protein quantification was determined using the BCA protein assay kit. Equal amounts of proteins were separated by sodium dodecyl sulfate-polyacrylamide gel electrophoresis (SDS-PAGE) and transferred to PVDF membrane. The membrane was blocked with 5% non-fat milk and incubated with primary antibodies (Bax, Bcl-2, Akt, Cyt C, Caspase-9, Caspase-3, RIP1, RIP3, p-RIP3, MLKL, p-MLKL, and β-actin) for 2 h at room temperature, followed by the secondary antibodies for 2 h at room temperature. Finally, the blots were detected by a chemiluminescent gel imaging system (Bio-Rad, Hercules, CA, USA).

H1975 cells [3] = experiment: Colony-formation assay; format: cell-based, human; details: 10 days
Description: Cells were seeded at a density of 1.5 × 10^3 cells/well into 6-well plates. When colonies formed, the media was replaced with fresh media at various concentrations of compound 16 (0, 1, 2, and 4 μM) and incubated for 10 days. At the end of the incubation time, the cells were washed three times with PBS, fixed with 4% paraformaldehyde for 15 min, stained with crystal violet solution for 10 min, and photographed.

[4] = MTT assay, cytotoxic activity on normal hepatocytes; format: cell-based, mouse; details: Aml-12 cells (normal hepatocytes); normal mouse hepatocytes Aml-12 cells, 72 h
Description: as §1, §2

Aml-12 cells = experiment: as above; format: cell-based, mouse; details: Aml-12 cells relative to H1975 cells
Description: as §1, §2

H1975 cells [5] = experiment: Detection of intracellular ROS (DCFH-DA, flow cytometry); format: cell-based, human
Description: Cells were seeded in 6-well plates at a density of 3 × 10^5 cells/well and incubated with different concentrations (0, 10, 20, 40, and 80 μM) of compound 16 or pre-treated with NAC (20 μM) incubated for 6 h, the cells were co-incubated with DCFH-DA for 20 min at 37° C in the dark. Finally, the intracellular ROS levels were measured using flow cytometry (Becton-Dickinson, Franklin Lakes, NJ, USA).

H1975 cells [6] = experiment: Flow cytometry with Annexin V/PI dual staining; format: cell-based, human; details: 24 h
Description: Cells were seeded (3 × 10^5 per well) in 6-well plates and incubated overnight. After adherence, the cells were treated with various concentrations (0, 10, 20, 40, and 80 μM) of compound 16 for 24 h. Furthermore, the cells were harvested, washed three times with PBS, and stained with Annexin V (FITC Annexin V) and propidium iodide (PI) staining solution for 30 min in the dark. The percentage of cell death was measured by flow cytometry (Becton-Dickinson, Franklin Lakes, NJ, USA).

COc1cc(C(c2cc(C(=O)C=Cc3ccc(O)cc3)c(O)c(CC=C(C)C)c2O)N2CCOCC2)cc(OC)c1OC (centres unmarked) [Compound 16, (E)-1-(2,4-Dihydroxy-3-(3-methylbut-2-en-1-yl)-5-(morpholino(3,4,5-trimethoxyphe-nyl)methyl)phenyl)-3-(4-hydroxyphenyl)prop-2-en-1-one]
IC50 (PC9): 16.1 µM | Effect of NAC on compound 16 induced cell death (cell viability) (H1975; H1975, compound 16 (40 μM) 24 h, pre-treatment with NAC, p < 0.01, Figure 6(F)): protective effect | Effect of NSA (MLKL inhibitor) on compound 16 induced necroptosis (cell viability) (H1975; H1975, compound 16 (40 μM) 24 h, pre-treatment with NSA (20 μM), p < 0.01): protective effect | Cell viability (H1975; H1975, compound 16 (40 μM) 24 h with pre-treatment with Nec-1 (20 μM), Figure 4(D)): 25.33% | viability at 40 µM (H1975; NCI-H1975, 24 h, H1975, compound 16 (40 μM) alone, 24 h, Figure 3(C)): 12.7% | viability at 40 µM (H1975; NCI-H1975, 24 h, H1975, compound 16 (40 μM) alone, 24 h, Figure 4(D)): 14.8% | viability at 40 µM (H1975; NCI-H1975, H1975, compound 16 (40 μM) 24 h with pre-treatment with z-VAD-FMK (20 μM), Figure 3(C)): 35.4% | IC50 (H1975; H1975 cells, 72 h, MTT, read-out: Cytotoxic activity IC50, H1975): 4.35 µM | IC50 (H1975; read-out: IC50 values against H1975 and A549 cell lines (range over both)): 4.35 to 15 µM | Cellular ATP levels (H1975 cells [1]): gradually decreased | Enhancement of cytotoxic effects compared to IBC (A549): 1.53 fold | IC50 (A549; Homo sapiens, 72 h, MTT): 14.2 µM | RIP1 protein levels ([2]; H1975, 20, 40, and 80 µM): down-regulation | Bax and Cyt C expression ([2]; H1975, 24 h): increasing | Bcl-2 and Akt protein levels ([2]; H1975, 24 h): decreasing | Caspase-9 and -3 ([2]; H1975, 24 h): cleaving | Expression of RIP3, p-RIP3, MLKL, and p-MLKL protein levels ([2]; H1975, 24 h): increased | Colony formation rate (H1975 cells [3]; H1975, 1 μM): 51.34% | Colony formation rate (H1975 cells [3]; H1975, 2 μM): 27.70% | Colony formation rate (H1975 cells [3]; H1975, 4 μM): 14.87% | IC50 at 72 h [4]: 10.1 ± 0.58 µM | SI value (selective inhibition) (Aml-12 cells): 2.32 | Intracellular ROS level enhancement (H1975 cells [5]; H1975, 10 μM, 6 h): 1.86% | Intracellular ROS level enhancement (H1975 cells [5]; H1975, 20 μM, 6 h): 2.21% | Intracellular ROS level enhancement (H1975 cells [5]; H1975, 40 μM, 6 h): 3.74% | Intracellular ROS level enhancement (H1975 cells [5]; H1975, 80 μM, 6 h): 5.82% | Intracellular ROS level enhancement (H1975 cells [5]; H1975, compound 16 (40 μM) alone, Figure 6(E)): 3.75% | Intracellular ROS level enhancement (H1975 cells [5]; H1975, compound 16 (40 μM) in combination with NAC (20 μM), Figure 6(E)): 2.02% | Cell death rate (Annexin V/PI) (H1975 cells [6]; H1975, 10 μM): 14.7% | Cell death rate (Annexin V/PI) (H1975 cells [6]; H1975, 20 μM): 22.7% | Cell death rate (Annexin V/PI) (H1975 cells [6]; H1975, 40 μM): 34.3% | Cell death rate (Annexin V/PI) (H1975 cells [6]; H1975, 80 μM): 54.9%
